Measurements reported in US12589085B2, “Use of diaminoguanidine derivative and feed composition thereof in preparation of veterinary drug” (priority 2019, dated 2026).
Read-outs that look alike come from different tables or passages of the source.

What was measured:
[1] = test system: sows suffering from endometritis; experiment: Efficacy on endometritis in postpartum sows; assay type: in vivo, pig; conditions: uterine perfusion 10 mg/kg once a day for 7 days; 30 sows
Protocol: Sows suffering from endometritis in 5 different pig farms were selected, 30 cases in each farm, 150 cases in total, were randomly divided into groups, and a non-treatment control was set up, and the sick pigs in each experimental group were perfused into the uterus. Agents, the main components of the uterine perfusion for treatment groups 1-4 were Compound 1, Compound 2, Compound 3, and Compound 4, respectively, at a dose of 10 mg/kg, and the control group was given an equal volume of normal saline. The frequency of administration is once a day for 7 consecutive days.

TA97 = experiment: Salmonella typhimurium reverse mutation assay, plate incorporation, TA97; conditions: positive control, TA97 −S9, 50 μg/100 μL dish
Protocol: (§1) Test strains: A set of standard test strains of TA97, TA98, TA100 and TA102 were provided by the Jiangsu Provincial Center for Disease Control and Prevention, and stored at −80° C. The test bacteria were cultured in a 37° C. water bath with shaking for 24 hours and stored at 4° C.
(§2) Enrichment culture: The main plate or the frozen-preserved strain culture was inoculated into nutrient broth, and cultivated for 10 hours at 37° C. with shaking (100 times/min). The strain culture should be more than 1˜2×10^9 viable bacteria per milliliter.
(§3) According to the physicochemical properties of the test article, the Compound 2 was prepared before test: 0.1 g of Compound 2 white powder was under UV sterilization for 2 h before test, and dissolved in 10 mL of dimethyl sulfoxide (DMSO), and then diluted to the desired concentration for the use (fresh preparation). […]
(§4) Preparation of test agent solution: 0.1 mL of test agent solution was added to each dish, and the highest concentration and volume of test agent solution to be prepared were determined according to the set maximum test dose of 10 mg/mL. The amount of the test agent to be weighed was calculated when the solution was prepared. […]
(§5) Judgment and evaluation of results: The results of each test were sorted out, and the number of strains turned into colonies was expressed as (x±SD)/dish. […]

TA98 = experiment: Salmonella typhimurium reverse mutation assay, plate incorporation, TA98; conditions: positive control, TA98 −S9, 50 μg/100 μL dish
Protocol: as §1, §2, §3, §4, §5

TA102 = experiment: Salmonella typhimurium reverse mutation assay, plate incorporation, TA102; conditions: positive control, TA102 −S9, 1.0 μL/100 μL dish
Protocol: as §1, §2, §3, §4, §5

sperm = conditions: oral once a day 5 days; for Total number of abnormal sperm / abnormal sperm: Amorphous / abnormal sperm: Banana shape / abnormal sperm: Double head / abnormal sperm: Double tail / abnormal sperm: Fat head / abnormal sperm: Fold tail / abnormal sperm: No hook: Day 35, 10000 sperm; for Number of Abnormal sperm (x ± SD) / Sperm deformity: Day 35, n = 10
Protocol: Experimental animals: 60 clean-grade healthy male ICR mice having the average weight of 18-20 g, purchased from the Comparative Medicine Center of Yangzhou University.
Reagents: Test agent, Compound 2, provided by Guangzhou Insighter Biotechnology Co., Ltd., was prepared into a suspension of the required concentration with 1.0% sodium carboxymethyl cellulose before use; the mutagenic positive control article of cyclophosphamide with the content of 99.00%; other reagents include sodium chloride, methanol, and eosin, all of analytical grade; self-prepared physiological saline; self-prepared eosin aqueous solution (2%).
The test article, Compound 2 was diluted with 1.0% sodium carboxymethyl cellulose as a solvent, and it was given by oral in different concentrations and the same volume. There is also a positive control and a negative (solvent) control. The cyclophosphamide was selected as the positive control (40 mg/kg).
Grouping of experimental animals: 60 healthy male mice were individually weighed, labeled and numbered, and they were divided into 5 groups with 12 mice in each group using a completely random method. It was ensured that 10 animals in each group survive for sampling and film making after administration.
Administration: The administration method is carried out according to GB15193.7-2003. The test group, the negative control and the positive control are all given the test article by oral once a day for 5 consecutive days. The weight of the mouse for each administration was weighed, and the volume of the test article that each mouse should administer was calculated according to the requirements of the mouse 0.2 mL/10 g b.w.
Sampling and sample preparation: The mice were sacrificed by cervical dislocation on the Day 35 after the first administration, and sampling and film making were performed. 10 mice were sampled in each dose group. The abdominal cavity was cut, the epididymis on both sides were separated and extracted, and put in a petri dish containing 2 mL of normal saline; The mice were longitudinally cut with ophthalmological scissors for 2 times, the normal saline in it was pipetted with a straw for several times, and let stand for 3 min; the tissue fragments were filtered with a 4-layer of lens cleaning paper, 1 drop of the filtrate was drawn onto the glass slide, the slide was pushed with 4 slides per mouse; the slide in the air dried naturally, and fixed with methanol for 10 minutes, and dried; stained with 2% eosin for 1 h, the dye solution was gently washed off with water, and it was dried naturally before microscopic examination.
Data collation and analysis: The number of normal sperm, the number of abnormal sperm and the number of various types of abnormal sperm were read and counted in each dose group of mice. The sperm abnormality rate (%) of mice in each dose group and the percentage (%) of various types of abnormal sperm were calculated, and the standard deviation of the sperm abnormality rate of mice was also calculated in each dose group. Calculation as follows:
The sperm abnormality rate of mice in each dose group was statistically compared with the sperm abnormality rate of mice in the negative (solvent) control. The experimental data was processed by SPSS 11.0 statistical software, and the analysis results were expressed as x±SD, and the incidence of sperm abnormalities was statistically processed according to the X^2 (α=0.05).
If the dose of the test group has caused the animal to die, while the sperm abnormality has not increased, the result can be judged to be negative.

N=C(N/N=C/c1ccc([N+](=O)[O-])cc1)N/N=C/c1ccc([N+](=O)[O-])cc1 [Compound 1]
Cure rate [1]: 93.3%
Treatment effects: sows cured [1]: 27 sows were cured,
Treatment effects: sows improved in symptoms [1]: 1 sow improved sows

N=C(N/N=C/c1ccc(OCc2ccccc2)cc1)N/N=C/c1ccc(OCc2ccccc2)cc1 [Compound 3]
Cure rate [1]: 90.0%
Treatment effects: sows cured [1]: 25 sows were cured,
Treatment effects: sows improved in symptoms [1]: 2 sows improved

COC(=O)c1ccc(/C=N/NC(=N)N/N=C/c2ccc(C(=O)OC)cc2)cc1 [Compound 4]
Cure rate [1]: 100%
Treatment effects: sows cured [1]: 25 sows were cured,
Treatment effects: sows improved in symptoms [1]: 5 sows improved

CN(C)c1ccc(N=NS(=O)(=O)[O-])cc1.[Na+] [Dixon, reference compound]
reverting colonies per dish (x ± SD) (TA97; First): >2000
reverting colonies per dish (x ± SD) (TA97; Second): >2000
reverting colonies per dish (x ± SD) (TA98; First): 932.00 ± 57.17
reverting colonies per dish (x ± SD) (TA98; Second): >2000

COS(C)(=O)=O [Methyl Methanesulfonate, methyl methanesulfonate, reference compound]
reverting colonies per dish (x ± SD) (TA102; First): 392.67 ± 12.86
reverting colonies per dish (x ± SD) (TA102; Second): >2000

isopropoxyphenylguanidine [Compound 2]
Total number of abnormal sperm (sperm; high 500 mg/kg): 224
abnormal sperm: Amorphous (sperm; high 500 mg/kg): 106
abnormal sperm: Banana shape (sperm; high 500 mg/kg): 22
abnormal sperm: Double head (sperm; high 500 mg/kg): 5
abnormal sperm: Double tail (sperm; high 500 mg/kg): 9
abnormal sperm: Fat head (sperm; high 500 mg/kg): 10
abnormal sperm: Fold tail (sperm; high 500 mg/kg): 9
abnormal sperm: No hook (sperm; high 500 mg/kg): 63
Number of Abnormal sperm (x ± SD) (sperm; high 500 mg/kg): 22.40 ± 1.84
Sperm deformity (sperm; high 500 mg/kg): 2.17 ± 0.16%
Total number of abnormal sperm (sperm; low 125 mg/kg): 223
abnormal sperm: Amorphous (sperm; low 125 mg/kg): 118
abnormal sperm: Banana shape (sperm; low 125 mg/kg): 16
abnormal sperm: Double head (sperm; low 125 mg/kg): 4
abnormal sperm: Double tail (sperm; low 125 mg/kg): 6
abnormal sperm: Fat head (sperm; low 125 mg/kg): 5
abnormal sperm: Fold tail (sperm; low 125 mg/kg): 5
abnormal sperm: No hook (sperm; low 125 mg/kg): 69
Number of Abnormal sperm (x ± SD) (sperm; low 125 mg/kg): 22.30 ± 1.70
Sperm deformity (sperm; low 125 mg/kg): 2.15 ± 0.16%
Total number of abnormal sperm (sperm; medium 250 mg/kg): 221
abnormal sperm: Amorphous (sperm; medium 250 mg/kg): 111
abnormal sperm: Banana shape (sperm; medium 250 mg/kg): 21
abnormal sperm: Double head (sperm; medium 250 mg/kg): 5
abnormal sperm: Double tail (sperm; medium 250 mg/kg): 7
abnormal sperm: Fat head (sperm; medium 250 mg/kg): 7
abnormal sperm: Fold tail (sperm; medium 250 mg/kg): 5
abnormal sperm: No hook (sperm; medium 250 mg/kg): 65
Number of Abnormal sperm (x ± SD) (sperm; medium 250 mg/kg): 22.10 ± 1.37
Sperm deformity (sperm; medium 250 mg/kg): 2.14 ± 0.14%
